Measurements reported in patent US20260132103A1, “Bumetanide Derivatives for the Therapy of Stroke and Other Neurological Diseases/Disorders Involving NKCCs” (University of Pittsburgh - Of the Commonwealth System of …, priority 2018, published 2026).

Assays:
Assay type in all cases: in vivo, mouse
[1] = test system: transient focal cerebral ischemia (tMCAO) in mice; assay: Corner test after tMCAO; conditions: 1-14 days after tMCAO
Description: (§1) FIGS. 2A-2D: Efficacy of NKCC1 inhibitors on improving neurological function in mice after tMCAO (see Example 3). (A) Neurological score, (B) corner test, (C) foot-fault test, and (D)-(E) adhesive tape test during 1-14 day after tMCAO. Data are mean±SD, n=4-9. *p<0.05 for DMSO vs STS66, **p<0.05 for DMSO vs STS5, ***p<0.05 for DMSO vs BMT, #p<0.05 for BMT vs STS66, ###p<0.05 for STS5 vs STS66.
(§2) Transient focal cerebral ischemia was induced in mice by intraluminal occlusion of the left middle cerebral artery (MCA) for 50 min as described previously (Chen H et al., 2005). Mice were anesthetized with 3% isoflurane in 70%: 30% N2O/O2 until they were unresponsive to the tail pinch test. Animals were then fitted with a nose cone blowing 1.5% isoflurane for anesthesia maintenance. The left common carotid artery was exposed and the occipital artery branches of the external carotid artery were isolated and coagulated. The internal carotid artery was isolated and the extracranial branch was dissected and ligated. […]
Neurological functional deficits in mice were determined by the corner test. […]
The numbers of left and right turns of each mouse during 10 trials were recorded, and turning movements that were not part of a rearing movement were not scored (Zhang L, et al., 2002).

[2] = test system: transient focal cerebral ischemia (tMCAO) in mice; assay: Brain infarct volume and swelling after transient focal cerebral ischemia (tMCAO); conditions: 24 h reperfusion, i.p.; for hemispheric edema (hemisphere swelling) / infarct volume: normotensive C57BL/6j mice, half dose at 3 h and 8 h reperfusion, BMT 10, STS5 13, STS66 12 mg/kg/day, mean±SD; for infarct volume: male and female combined
Experimental: FIGS. 1A-1C: Efficacy of NKCC1 inhibitors in reducing ischemic infarction, cerebral edema, and the post-stroke survival in normotensive mice after tMCAO (see Example 3). (1A) Experimental protocol and data collection. Transient middle cerebral artery occlusion (tMCAO) was induced in normal C57/b6 mice. DMSO, BMT (10 mg/kg body weight), STS5 (13 mg/kg) or STS66 (12 mg/kg) was administered via intraperitoneal injection (i.p.) as described in method. (1 B) Representative TTC staining images in normotensive mice at 24 h reperfusion with quantitative analysis of infarct volume. Data are mean±SD, n=6-13 (male, n=3-9; female, n=3-4, *p<0.05). Scale: 5 mm. (1C) Percentage hemisphere swelling at 24 h reperfusion. Data are mean±SD, n=6-13, *p<0.05. (1D) Body weight change during 1-14 days after tMCAO. Data are mean±SD, n=5-9 (male, n=4; female, n=2, *p<0.05). (1E) Survival curve during 1-14 day after tMCAO. Data are mean±SD, n=5-9 (male, n=3-7; female, n=2, *p<0.05).
(§3) Transient focal cerebral ischemia was induced in mice by intraluminal occlusion of the left middle cerebral artery (MCA) for 50 min as described previously (Chen H et al., 2005). Mice were anesthetized with 3% isoflurane in 70%: 30% N2O/O2 until they were unresponsive to the tail pinch test. Animals were then fitted with a nose cone blowing 1.5% isoflurane for anesthesia maintenance. The left common carotid artery was exposed and the occipital artery branches of the external carotid artery were isolated and coagulated. The internal carotid artery was isolated and the extracranial branch was dissected and ligated. A rubber silicon-coated monofilament suture (6-0) was introduced into the internal carotid artery lumen and gently advanced approximately 8-9 mm to block the MCA blood flow for 50 min. The rectal temperature was maintained at 37.0±0.5° C. during surgery through a temperature-controlled heating pad. Achievement of ischemia was confirmed by monitoring regional cerebral blood flow (rCBF) with laser speckle contrast imager (Pericam). For reperfusion, the suture was withdrawn after the MCAO. The incision was closed and the mouse recovered under a heating lamp to maintain the core temperature (36.0-37.0° C.) during the 30-60 min recovery period. After recovery, animals were returned to their cages with free access to food and water.
(§4) Vehicle: DMSO (2 ml/kg body weight/day), the NKCC1 inhibitor bumetanide (BMT, 10 mg/kg body weight/day in DMSO), bumetanide's prodrug STS5 (13 mg/kg body weight/day in DMSO), or the novel NKCC1 inhibitor STS66 according to the invention (12 mg/kg body weight/day in DMSO) was administered via intraperitoneal injection (i.p). The initial half dose of the drugs (BMT, STS5, STS66) was given at 3 h after the onset of reperfusion and the second half dose at 8 h reperfusion in the tMCAO model.
At 24 h post-reperfusion, mice were anesthetized with 5% isoflurane and then decapitated. Coronal brain slices (2 mm thickness) were stained with 1% 2,3,5-triphenyltetrazolium chloridemonohydrate (TTC) for 20-30 min and brain slices were scanned (Begum G et al., 2015). Ischemic lesions were traced in each slice in a blinded manner, and the total volume of infarction was calculated with correction for edema, as described by Swanson et al., 1990 using ImageJ software. Infarct areas were summed across all slices and multiplied by slice thickness to yield total infarct volume (mm^3). Brain swelling was determined with the following formula. For tMCAO: swelling (% contralateral hemispheric volume)=[(ipsilateral hemispheric volume)−(contralateral hemispheric volume)]/(contralateral hemispheric volume)×100, as described before (Guo Q G et al., 2009; Sunghee Cho et al., 2005).

[3] = test system: transient focal cerebral ischemia (tMCAO) in mice; assay: Adhesive tape removal test after tMCAO; conditions: days not given (tests on days 1-14); for adhesive tape removal time, last value of the span: end of the span 'x to y'; for adhesive tape removal time, first value of the given span: start of the span 'x to y'
Description: as §1, §3, §4
An adhesive tape removal test was used to measure somatosensory deficits. Two pieces of adhesive tape (4 mm×3 mm) were attached to the forepaws in an alternating sequence and with equal pressure by the experimenter before each trial. The removal time is defined as the time at which the animal removes the tape. The trial ended after the adhesive patch was removed or after 2 min had elapsed. Pre-operative training was carried twice per day for three days and were tested on day 1, 2, 3, 5, 7, 10 and 14 days after tMCAO (Bouet V, et al., 2009).

[4] = test system: transient focal cerebral ischemia (tMCAO) in mice; assay: Neurological score after tMCAO
Description: as §1, §3, §4
Neurological deficit grading system was used to evaluate neurological deficit at 1, 2, 3, 5, 7, 10 and 14 days after tMCAO as described previously (Bederson J B et al,1986).

[5] = test system: transient focal cerebral ischemia (tMCAO) in mice; assay: Neurological function tests (sensorimotor deficits) after tMCAO; conditions: normotensive mice, 1-14 days monitor and behavior test after stroke
Description: as §1
as §2, with “coagulated.” for “coagulated. The internal carotid artery was isolated and the extracranial branch was dissected and ligated.”
Neurological functional deficits in mice were assessed in a blinded manner with the following tests: neurological score, adhesive tape removal test, corner test, cylinder test, and grid walking foot-fault test. These tests are established for identifying and quantifying sensorimotor deficits and postural asymmetries (Bederson J B, et al., 1986; Zhang L, et al., 2002; Schaar K L, et al., 2010).

SMILES | corner test outcome [1] | hemispheric edema (hemisphere swelling) [2] [%] | infarct volume [2] [mm^3] | adhesive tape removal time, last value of the span [3] [s] | adhesive tape removal time, first value of the given span [3] [s] | neurological deficit score ([4]; day 5) | neurological deficit score ([4]; day 10) | sensorimotor deficits [5] | infarct volume in female mice ([2]; female mice only, STS5 13, STS66 12 mg/kg/day) [mm^3] | neurological deficit score ([4]; day 1 post-reperfusion) | neurological deficit score ([4]; day 14 post-reperfusion)
CCCCNc1cc(C(=O)O)cc(S(N)(=O)=O)c1Oc1ccccc1 [BMT, 3-(butylamino)-4-phenoxy-5-sulfamoylbenzoic acid, reference compound] | exhibited neuroprotective effects | 15.4±5.9 | 65.2±21.7 | 17.4 ± 7.6 | 109.4 ± 10.8 | 3.8±0.4 | 2.5±0.5 | improved all sensorimotor deficits | – | – | –
CCCCNc1cc(CNCC(F)(F)F)cc(S(N)(=O)=O)c1Oc1ccccc1 [STS66, 3-(Butylamino)-2-phenoxy-5-[(2,2,2-trifluoroethylamino)methyl]benzenesulfonamide] | definite superior effects at every testing day | 14.1±6.1 | 69.7±17.9 | 10.3 ± 5.2 | 29.7 ± 36.0 | – | – | improved all sensorimotor deficits | 74.3±9.2 | 4.0±0.0 | 1.2±0.4
